≈ marks a conversion by molar mass, not a printed value. Where two headings read alike, the source gives them in different places. Marks after values point to notes of the source that are not given here. *1 amine or outer side, *2 acyl side, *3 side chain or, on linkers, in order; H or OH if unused. Where a SMILES comes first, the peptide text is derived from it. Bridges are numbered along the chain shown (N, C = ends). Roman numbers before positions name the chains, in order. [ ]: non-standard residue; d: D form. Actinocin(9to1) = Cc1c2oc3c(C)ccc(C(=O)[*:1])c3nc-2c(C(=O)[*:2])c(N)c1=O; NMeV = CN[C@H](C(=O)O)C(C)C; Sar = CNCC(=O)O
Assays:
U937 cells = assay: XTT cytotoxicity assay on PMA-differentiated U937 cells; details: for IC50: Homo sapiens, U-937, 72 h
[1] = system: Mycobacterium smegmatis (MC^2 155); assay: Microdilution (microplate INT) susceptibility assay on M. smegmatis; format: cell-based; details: Mycolicibacterium smegmatis
Method: Cryopreserved or freshly scraped colonies were suspended in fresh Middlebrook 7H9 broth (Sigma-Aldrich Chemical Co., South Africa) and incubated for 24 h at 37°C. The overnight liquid culture was then transferred to a sterile test tube containing 20–25 glass beads (with a 2.00 mm diameter) and homogenised by using a vortex mixer (Heidolph, Germany) for 5–10 min. The broth culture was then left still for 5–10 min to let larger clumps of mycobacteria settle. The supernatant was carefully decanted to a sterile flask and adjusted with Middlebrook 7H9 broth base to an optical density of 0.2 (log phase) at 550 nm (Beckman DU-720 UV spectrophotometer), yielding 1.26 × 10^8 colony-forming units per millilitre (CFU/mL). The microdilution test was performed in 96-well microtiter plates as described earlier.
The plant extract and fractions were dissolved in 10% dimethyl sulfoxide (DMSO) to obtain a stock concentration of 10 mg/mL. Ciprofloxacin (Sigma-Aldrich Chemical Co., South Africa) at final concentrations ranging from 2.00 × 10^−3 to 7.80 × 10^−5 mg/mL served as the positive drug control. Serial twofold dilutions of each test sample were made with Middlebrook 7H9 broth base (Sigma-Aldrich Chemical Co., South Africa) to yield volumes of […] with final concentrations ranging from 2.50 to 0.08 mg/mL. […]

[2] = system: M. tuberculosis H37Rv (ATCC 27294); assay: microbe, parasite or virus in culture; format: cell-based, Mycobacterium tuberculosis; details: for ΔGI4-3 ± SD: BACTEC growth index change, V2 10^-2 inoculum control 22.0 ± 2.94; for MIC: Mycobacterium tuberculosis, read-out: MIC (minimum inhibitory concentration)
M. tuberculosis [3] = assay: Microplate assay MIC against M. tuberculosis (compound 2); format: cell-based, Mycobacterium tuberculosis; details: BACTEC MIC not determined
[4] = XTT cytotoxicity assay on PMA-differentiated U937 cells; details: human, PMA-differentiated U937 cells (macrophage-like), pH 7.2
M. tuberculosis [5] = details: cited from earlier work
[6] = read-out: IC50 (fifty percent inhibitory concentration)

Cc1c2oc3c(C)ccc(C(=O)N[C@@H]4C(=O)N[C@H](C(C)C)C(=O)N5CCC[C@H]5C(=O)N(C)CC(=O)N(C)[C@@H](C(C)C)C(=O)O[C@@H]4C)c3nc-2c(C(=O)N[C@@H]2C(=O)N[C@H](C(C)C)C(=O)N3CCC[C@H]3C(=O)N(C)CC(=O)N(C)[C@@H](C(C)C)C(=O)O[C@@H]2C)c(N)c1=O [Actinomycin D] (I: T[dV]P[Sar][NMeV] / II: T[dV]P[Sar][NMeV]; ester I:1-I:C, II:1-II:C; linker I:N-II:N via Actinocin(9to1))
IC50 (U937 cells; read-out: IC50 (fifty percent inhibitory concentration), U937 macrophages, 72 h, XTT): 0.0038 µg/mL (≈ 0.00303 µM) | IC50 (fifty percent inhibitory concentration) (U937 cells; U937 macrophages, 72 h, XTT): 3.820 ± 0.258 ×10^−3 μg/mL

O=C(O)c1cn(C2CC2)c2cc(N3CCNCC3)c(F)cc2c1=O [Ciprofloxacin]
MIC ([1]; MC^2155, 24 h, INT microplate, read-out: MIC (minimum inhibitory concentration)): 1.25 µg/mL (≈ 3.77 µM) | MBC ([1]; MC^2155, 48 h subculture, INT, read-out: MBC (minimum bactericidal concentration)): 1.25 µg/mL (≈ 3.77 µM)

CCC(=CC[C@@H](C)[C@H]1CC[C@H]2[C@@H]3CC=C4CC(O)CC[C@]4(C)[C@H]3CC[C@]12C)C(C)C (some centres unmarked) [Compound (1), Stigmasta-5,23-dien-3-ol]
ΔGI4-3 ± SD [2]: −9.00 ± 1.41 | MIC ([2]; BACTEC radiometric): 50 µg/mL (≈ 121 µM) | IC50 (U937 cells; [6]): 16.41 ± 0.135 µg/mL (≈ 39.8 µM)

O=C1C=CC(CO)O1 (centres unmarked) [Compound (2), 5-(hydroxymethyl)furan-2(5H)-one]
MIC determined via microplate assay (M. tuberculosis [3]): 100.0^k μg/mL | MIC (M. tuberculosis [3]; Mycobacterium tuberculosis, read-out: MIC determined via microplate assay): 200 µg/mL (≈ 1750 µM) | IC50 (U937 cells; [6]): 44.7 ± 0.5 µg/mL (≈ 392 µM)

NNC(=O)c1ccncc1 [INH, isoniazid]
ΔGI4-3 ± SD [2]: −2.50 ± 2.12 | MIC (minimum inhibitory concentration) ([2]; BACTEC radiometric): 0.20 µg/mL (≈ 1.46 µM) | MIC ([2]; BACTEC radiometric): 0.2 µg/mL (≈ 1.46 µM) | viability at 72 h, 200 μg/mL [4]: 80% | IC50 (U937 cells; [6]): > 200 µg/mL

C=CC(O)(CC[C@@H](C)[C@H]1CC[C@H]2[C@@H]3CC=C4C[C@@H](O)CC[C@]4(C)[C@H]3CC[C@]12C)C(C)C (some centres unmarked) [saringosterol]
MIC (M. tuberculosis [5]; M. tb ref 34): 0.250 µg/mL (≈ 0.583 µM)

CC[C@H](/C=C/[C@@H](C)[C@H]1CC[C@H]2[C@@H]3CC=C4C[C@@H](O)CC[C@]4(C)[C@H]3CC[C@]12C)C(C)C [stigmasterol]
MIC (M. tuberculosis [5]; phytosterols from Morinda citrifolia against M. tb ref 33 (Saludes et al.)): 32.00 µg/mL (≈ 77.5 µM)
